# Source: US20220098203A1 (priority 2018, published 2022)
# Molecular target: T1, MAT2A homodimer (Homo sapiens, UniProt P31153)
# T1 construct: inferred from the Ni sepharose purification and imidazole elution; made in house; host or cells: SF9 insect cells, recombinant baculovirus (Bac to Bac, pFASTBAC1)
# Assay: MAT2A biochemical assay (liberated phosphate, PiColorLock Gold)
# Conditions: Table 5a; MAT2A biochemical assay; read-out: Enzyme Inhibition
# Description: Mat2A protein was expressed by recombinant baculovirus in SF9 infected cells using the Bac to Bac system cloned into the pFASTBAC1 vector (Invitrogen, Carlsbad, Calif.). Recombinant MAT2A was isolated from the cell lysate of 150 g of infected cells using HP Ni sepharose column chromatography. Recombinant MAT2A homodimer was eluted with 250 and 500 mM imidazole, and fractions containing MAT2A were identified by sodium dodecyl sulfate polyacrylamide gel electrophoresis and pooled.
# Test compound was prepared in 100% dimethyl sulfoxide (DMSO) at 50× the desired final concentration. A 1 μL volume of compound dilution was added to 40 μL of enzyme dilution and the mixture was allowed to equilibrate for 60 minutes at 25° C. The enzymatic assay was initiated by the addition of 10 μL of substrate mix (500 μM ATP, pH 7.0, 400 μM L-methionine in 1× assay buffer), and the mixture was incubated for a further 60 minutes at 25° C. The reaction was halted and the liberated phosphate released by the enzyme in stoichiometric amounts by the production of S-adenosyl methionine (SAM) was measured using the PiColorLock Gold kit (Innova Biosciences, UK). Absolute product amounts were determined by comparison to a standard curve of potassium phosphate buffer, pH 8.0.
# T1 sequence (P31153 whole entry): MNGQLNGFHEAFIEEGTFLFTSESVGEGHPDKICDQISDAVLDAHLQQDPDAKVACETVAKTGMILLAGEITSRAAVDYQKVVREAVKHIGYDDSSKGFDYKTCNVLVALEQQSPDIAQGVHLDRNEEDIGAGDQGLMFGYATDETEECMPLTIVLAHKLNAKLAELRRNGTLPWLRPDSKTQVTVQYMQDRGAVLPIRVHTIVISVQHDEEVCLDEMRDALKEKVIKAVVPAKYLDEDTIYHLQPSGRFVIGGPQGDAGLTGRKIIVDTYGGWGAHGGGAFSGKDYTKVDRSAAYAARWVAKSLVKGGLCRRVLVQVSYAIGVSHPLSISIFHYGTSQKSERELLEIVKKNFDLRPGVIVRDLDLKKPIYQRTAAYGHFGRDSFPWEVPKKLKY
row,IC50 [µM],Structure (SMILES)
1,0.1 to 1,"COc1ccc(N2C(=O)N(c3ccc(OC)cn3)Cc3cnc(NCC(F)(F)F)nc32)cc1 [Example 238, 1-(4-methoxyphenyl)-3-(5-methoxypyridin-2-yl)-7-((2,2,2-trifluoroethyl)amino)-3,4-dihydropyrimido[4,5-d]pyrimidin-2(1H)-one]"
2,0.1 to 1,"COc1ccc(N2C(=O)N(c3ccc(OC)nc3)Cc3cnc(NCC(F)(F)F)nc32)cc1 [Example 239, 1-(4-methoxyphenyl)-3-(6-methoxypyridin-3-yl)-7-((2,2,2-trifluoroethyl)amino)-3,4-dihydropyrimido[4,5-d]pyrimidin-2(1H)-one]"
3,0.1 to 1,COc1ccc(N2Cc3cnc(NCC(F)(F)F)nc3N(c3ccc4ncccc4c3)C2=O)cc1 [Example 240]
4,0.1 to 1,"COc1ccc(N2Cc3cnc(NCC(F)(F)F)nc3N(c3ccc(C)cc3)C2=O)cc1 [Example 243, 3-(4-methoxyphenyl)-1-(p-tolyl)-7-((2,2,2-trifluoroethyl)amino)-3,4-dihydropyrimido[4,5-d]pyrimidin-2(1H)-one]"
5,1 to 10,"COc1ccc(N2Cc3cnc(SC)nc3N(c3ccc(C)cc3)C2=O)cc1 [Example 244, 3-(4-methoxyphenyl)-7-(methylthio)-1-(p-tolyl)-3,4-dihydropyrimido[4,5-d]pyrimidin-2(1H)-one]"
6,1 to 10,"COc1ccc(N2Cc3cnc(NCC(F)(F)F)nc3N(c3ccc(Cl)c(Cl)c3)C2=O)cc1 [Example 245, 1-(3,4-dichlorophenyl)-3-(4-methoxyphenyl)-7-((2,2,2-trifluoroethyl)amino)-3,4-dihydropyrimido[4,5-d]pyrimidin-2(1H)-one]"
7,1 to 10,"COc1ccc(N2C(=O)N(c3ccc4nn(C)cc4c3)Cc3cnc(NC4CCCCC4)nc32)cc1 [Example 248, 7-(cyclohexylamino)-1-(4-methoxyphenyl)-3-(2-methyl-2H-indazol-5-yl)-3,4-dihydropyrimido[4,5-d]pyrimidin-2(1H)-one]"
8,0.1 to 1,"COc1ccc(N2Cc3cnc(NCC(F)(F)F)nc3N(c3ccc(O)cc3)C2=O)cc1 [Example 249, 1-(4-hydroxyphenyl)-3-(4-methoxyphenyl)-7-((2,2,2-trifluoroethyl)amino)-3,4-dihydropyrimido[4,5-d]pyrimidin-2(1H)-one]"
9,1 to 10,"COc1ccc(N2Cc3cnc(NCC(F)(F)F)nc3N(c3ccc(C#N)cc3)C2=O)cc1 [Example 251, 4-(3-(4-methoxyphenyl)-2-oxo-7-((2,2,2-trifluoroethyl)amino)-3,4-dihydropyrimido[4,5-d]pyrimidin-1(2H)-yl)benzonitrile]"
10,0.1 to 1,"COc1ccc(N2Cc3cnc(NCC(F)(F)F)nc3N(c3ccc4c(c3)CCO4)C2=O)cc1 [Example 253, 1-(2,3-dihydrobenzofuran-5-yl)-3-(4-methoxyphenyl)-7-((2,2,2-trifluoroethyl)amino)-3,4-dihydropyrimido[4,5-d]pyrimidin2(1H)-one]"
11,0.1 to 1,"COc1ccc(N2Cc3cnc(NCC(F)(F)F)nc3N(c3ccc4sccc4c3)C2=O)cc1 [Example 254, 1-(benzo[b]thiophen-5-yl)-3-(4-methoxyphenyl)-7-((2,2,2-trifluoroethyl)amino)-3,4-dihydropyrimido[4,5-d]pyrimidin2(1H)-one]"
12,0.1 to 1,"COc1ccc(N2Cc3cnc(NCC(F)(F)F)nc3N(c3ccc(OC(F)(F)F)cc3)C2=O)cc1 [Example 256, 3-(4-methoxyphenyl)-7-((2,2,2-trifluoroethyl)amino)-1-(4-(trifluoromethoxy)phenyl)-3,4-dihydropyrimido[4,5-d]pyrimidin-2(1H)-one]"
13,0.1 to 1,"COc1ccc(N2Cc3cnc(NCC(F)(F)F)nc3N(c3ccc(OC)cn3)C2=O)cc1 [Example 257, 3-(4-Methoxyphenyl)-1-(5-methoxypyridin-2-yl)-7-(2,2,2-trifluoroethylamino)-3,4-dihydropyrimido[4,5-d]pyrimidin-2(1H)-one]"
14,0.1 to 1,COc1ccc(N2Cc3cnc(NCC(F)(F)F)nc3N([C@H]3CC[C@H](OC)CC3)C2=O)cc1 [Example 258]
15,0.1 to 1,COc1ccc(N2Cc3cnc(NCC(F)(F)F)nc3N(c3ccc(OC(F)F)nc3)C2=O)cc1 [Example 259]
16,1 to 10,COc1ccc(N2Cc3cnc(NCC(F)(F)F)nc3N(c3ccc4nccn4c3)C2=O)cc1 [Example 260]
17,0.1 to 1,"COc1ccc(-n2c(=O)c3cnc(NCC(F)(F)F)nc3n(-c3ccc(O)cc3)c2=O)cc1 [Example 262, 1-(4-hydroxyphenyl)-3-(4-methoxyphenyl)-7-((2,2,2-trifluoroethyl)amino)pyrimido[4,5-d]pyrimidine-2,4(1H,3H)-dione]"

row,IC50 [µM],Structure (SMILES)
1,< 0.1,"Cn1cc2cc(N3Cc4cnc(NCC(F)(F)F)nc4N(c4ccc(Cl)cc4)C3=O)ccc2n1 [Example 263, 1-(4-chlorophenyl)-3-(2-methyl-2H-indazol-5-yl)-7-((2,2,2-trifluoroethyl)amino)-3,4-dihydropyrimido[4,5-d]pyrimidin-2(1H)-one]"
2,1 to 10,COc1ccc(N2Cc3cnc(NCC4CC4)nc3N(c3ccc(O)cc3)C2=O)cc1 [Example 265]
3,1 to 10,COc1ccc(N2Cc3cnc(NCC4CC4)nc3N(c3ccncc3)C2=O)cc1 [Example 266]
4,0.1 to 1,COc1ccc(N2Cc3cnc(NCC4CC4)nc3N(c3ccc(OC)cc3)C2=O)cc1 [Example 267]
5,0.1 to 1,"COc1ccc(N2Cc3cnc(NCC(F)(F)F)nc3N(c3ccc(C(N)=O)cc3)C2=O)cc1 [Example 276, 4-(3-(4-methoxyphenyl)-2-oxo-7-((2,2,2-trifluoroethyl)amino)-3,4-dihydropyrimido[4,5-d]pyrimidin-1(2H)-yl)benzamide]"
6,1 to 10,"CNC(=O)c1ccc(N2C(=O)N(c3ccc(OC)cc3)Cc3cnc(NCC(F)(F)F)nc32)cc1 [Example 277, 4-(3-(4-methoxyphenyl)-2-oxo-7-((2,2,2-trifluoroethyl)amino)-3,4-dihydropyrimido[4,5-d]pyrimidin-1(2H)-yl)-N-methylbenzamide]"
7,0.1 to 1,"COc1ccc(N2Cc3cnc(NCC(F)(F)F)nc3N(c3ccc(C4(O)CC4)cc3)C2=O)cc1 [Example 278, 1-(4-(1-hydroxycyclopropyl)phenyl)-3-(4-methoxyphenyl)-7-((2,2,2-trifluoroethyl)amino)-3,4-dihydropyrimido[4,5-d]pyrimidin-2(1H)-one]"
8,0.1 to 1,"COc1ccc(N2Cc3cnc(NCC(F)(F)F)nc3N(c3ccc(-c4ccc[nH]c4=O)cc3)C2=O)cc1 [Example 279, 3-(4-methoxyphenyl)-1-(4-(2-oxo-1,2-dihydropyridin-3-yl)phenyl)-7-((2,2,2-trifluoroethyl)amino)-3,4-dihydropyrimido[4,5-d]pyrimidin-2(1H)-one]"
9,0.1 to 1,"COc1ccc(N2Cc3cnc(NCC(F)(F)F)nc3N(c3ccc(-c4cc[nH]c4)cc3)C2=O)cc1 [Example 280, 1-(4-(1H-pyrrol-3-yl)phenyl)-3-(4-methoxyphenyl)-7-((2,2,2-trifluoroethyl)amino)-3,4-dihydropyrimido[4,5-d]pyrimidin-2(1H)-one]"
10,0.1 to 1,"COc1ccc(N2Cc3cnc(NCC(F)(F)F)nc3N(c3ccc(C4CC4O)cc3)C2=O)cc1 (stereo not shown) [Example 281, 1-(4-(2-hydroxycyclopropyl)phenyl)-3-(4-methoxyphenyl)-7-((2,2,2-trifluoroethyl)amino)-3,4-dihydropyrimido[4,5-d]pyrimidin-2(1H)-one]"
11,0.1 to 1,"Cn1cc2cc(N3Cc4cc(Cl)c(OCC(F)F)cc4N(c4ccc(OC(F)F)cc4)C3=O)ccc2n1 [Example 284, 6-chloro-7-(2,2-difluoroethoxy)-1-(4-(difluoromethoxy)phenyl)-3-(2-methyl-2H-indazol-5-yl)-3,4-dihydroquinazolin-2(1H)-one]"
12,0.1 to 1,"[2H]C([2H])([2H])Oc1ccc(N2C(=O)N(c3ccc4nn(C)cc4c3)C(C)c3ccc(OCC(F)F)nc32)cc1 (stereo not shown) [Example 286, 7-(2,2-difluoroethoxy)-1-(4-(methoxy-d3)phenyl)-4-methyl-3-(2-methyl-2H-indazol-5-yl)-3,4-dihydropyrido[2,3-d]pyrimidin-2(1H)-one]"
13,1 to 10,"CCOc1cc2c(nn1)CN(c1ccc3nn(C)cc3c1)C(=O)N2c1ccc(OC(F)F)cc1 [Example 292, 5-(4-(difluoromethoxy)phenyl)-3-ethoxy-7-(2-methyl-2H-indazol-5-yl)-7,8-dihydropyrimido[5,4-c]pyridazin-6(5H)-one]"
14,0.1 to 1,Cn1cc2cc(N3Cc4nnc(NCC(F)(F)F)cc4N(c4ccc(OC(F)F)cc4)C3=O)ccc2n1 [Example 293]
15,0.1 to 1,"CCOc1cc2c(cn1)CN(c1ccc3nn(C)cc3c1)C(=O)N2c1ccc(Cl)cc1 [Example 418, 1-(4-chlorophenyl)-7-ethoxy-3-(2-methyl-2H-indazol-5-yl)-3,4-dihydropyrido[4,3-d]pyrimidin-2(1H)-one]"
16,1 to 10,"COC1CCC(N2C(=O)N(c3ccc4nn(C)cc4c3)Cc3ccc(OCC(F)F)nc32)CC1 (stereo not shown) [Example 427, 7-(2,2-difluoroethoxy)-1-(4-methoxycyclohexyl)-3-(2-methyl-2H-indazol-5-yl)-1H,2H,3H,4H-pyrido[2,3-d]pyrimidin-2-one]"
17,< 0.1,"Cc1ccc(N2C(=O)N(c3ccc4nn(C)cc4c3)Cc3cnc(NCC(F)(F)F)nc32)cn1 [Example 433, 3-(2-methyl-2H-indazol-5-yl)-1-(6-methylpyridin-3-yl)-7-((2,2,2-trifluoroethyl)amino)-3,4-dihydropyrimido[4,5-d]pyrimidin-2(1H)-one]"
